{"source": "paper PMC12598851", "about": "“Exploiting Avidity Effects for the Discovery of Low Affinity Protein-Binding Fragments” (Journal of Medicinal Chemistry, 2025)", "key": {"[1]": {"target": "T1, tetrameric streptavidin (SA-647) (Streptomyces avidinii, UniProt P22629)", "T1 construct": "purchased ThermoFisher S3235", "T1 sequence (P22629 37-163 limits assumed)": "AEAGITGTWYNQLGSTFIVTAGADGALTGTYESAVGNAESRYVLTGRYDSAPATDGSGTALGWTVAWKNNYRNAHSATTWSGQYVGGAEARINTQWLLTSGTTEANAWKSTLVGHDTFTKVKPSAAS", "assay": "Bead pull-down: SA-647 retained by compound-displaying TentaGel beads, plate reader", "type": "binding", "settings": "SA-647 50 nM, about 14,000-fold below the intrinsic KD"}, "[2]": {"target": "T1, tetrameric streptavidin (SA-647)", "assay": "Bead pull-down: SA-647 retained by compound-displaying TentaGel beads, plate reader", "type": "binding", "description": "Compounds 2 and 3 were then constructed on 10 μm TentaGel beads via straightforward solid-phase synthesis, along with acetylated beads, which as a “blank” (Figure c). TentaGel beads consist of an amino-polystyrene core onto which is grafted a thick layer of amine-terminated PEG chains. An additional mini-PEG spacer was incorporated prior to coupling the compounds to further improve spatial accessibility and aqueous display of the compounds (see Experimental Section for detailed synthesis). The beads were incubated with AlexaFluor 647-conjugated SA (SA-647) in phosphate-buffered saline supplemented with 0.05% Tween 20 (PBST) for 1 h at room temperature in the dark. Following incubation, the beads were washed thoroughly (see Experimental Section for a detailed protocol), then resuspended in PBST. The amount of fluorescent SA retained by the resin was analyzed using a Tecan multiwell plate reader equipped with appropriate excitation and emission filters (excitation at 650 nm, emission at 665 nm).\nGeneral notes: • At each step, contents were mixed by pipetting up and down 3–5 times. • All steps following the addition of SA-647 were conducted in the dark. • SA-647 and mSA-647 were purchased from commercial sources; (SA-647: ThermoFisher cat#S3235, mSA-647: Millipore SAE178).\nA 96-well Multiscreen hydrophilic assay plate (MilliporeSigma, MSBVN12) was activated by treating each well with 150 μL of 70% (v/v) ethanol in water. The solvent was removed under vacuum, and the wells were washed with PBST (3 × 150 μL). Fresh PBST (150 μL) was then added to each well.\nThe plate was drained and washed again with PBST (3 × 150 μL), followed by the addition of 150 μL PBST per well. Plates were shaken overnight at ambient temperature on an orbital plate shaker.\nThe next day, wells were drained and incubated with 150 μL of a 1:1 (v/v) solution of PBST:PBS blocking buffer (Thermo Scientific, 37538) for 1 h at room temperature. After removal of the blocking buffer, 100 μL PBST was added to each well and mixed thoroughly. A 20 μL aliquot from each well was transferred to a black 384-well flat-bottom plate (Corning, 3820) for background (blank) measurements.\nThe remaining PBST was removed, and the beads were incubated with SA-647 (500 nM in 1:1 PBST/blocking buffer, 150 μL per well) for 1 h at room temperature. After incubation, wells were washed with PBST while shaking (3 × 20 min). A final 150 μL PBST wash was performed and drained. Fresh PBST (80 μL) was added to each well, and the contents were transferred to labeled PCR tubes. Samples were briefly vortexed and mixed by pipetting.\nEach sample was transferred to a black 384-well plate in triplicate (3 × 20 μL per well). The plate was sealed with a foil sticker and centrifuged at 250g for 1 min. Fluorescence intensity was measured using a TECAN plate reader. Background fluorescence (from blank wells) was subtracted prior to further data analysis."}, "SA-647": {"target": "T2, SA-647 (Streptomyces avidinii, UniProt P22629)", "T2 construct": "purchased ThermoFisher S3235", "T2 sequence (P22629 37-163 limits assumed)": "as above", "assay": "Dose-dependent binding of SA-647 to bead-displayed ligands by FACS (MFI)", "settings": "SA-647 0.1 to 1000 nM", "procedure": "We next asked if the bead binding assay could distinguish complexes with different affinities for SA. 10 μm TentaGel beads displaying compound 2, compound 3, the oxazole analogue of compound 2 (Figure S4), or the SA-binding macrocycle 1 shown in Figure a were exposed to different concentrations of SA-647 ranging from 0.1 to 1000 nM. After washing, the intensity of fluorescence retained on the beads was measured using a flow cytometer, and the results were plotted as the mean fluorescence intensity (MFI) on the beads vs the protein concentration. […] Macrocycle 1, which binds SA with a K D of about 600 nM in solution (more than 1000 times more tightly than compound 2), binds SA-647 on resin at far lower concentrations than does compound 2."}, "[3]": {"target": "T3, glutathione S-transferase (GST) (Schistosoma japonicum, UniProt P08515)", "T3 construct": "His6 (C); made in house; host or cells: E. coli BL21 (DE3) codon plus RP", "T3 sequence (P08515 whole entry)": "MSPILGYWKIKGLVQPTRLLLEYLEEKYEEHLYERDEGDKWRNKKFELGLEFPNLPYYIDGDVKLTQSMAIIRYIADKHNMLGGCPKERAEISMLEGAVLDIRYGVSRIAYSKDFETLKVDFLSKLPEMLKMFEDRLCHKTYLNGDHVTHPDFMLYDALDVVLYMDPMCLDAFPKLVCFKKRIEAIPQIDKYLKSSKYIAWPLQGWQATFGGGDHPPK", "assay": "Bead pull-down of compound 2 beads with GST as off-target control", "type": "binding", "settings": "GST 1 μM, stained with labeled antibody"}}, "note": "Values joined by “and” are separate entries in the source; they are usually repeats but may differ in a detail not shown here. Equal entries are not always repeated. “Also recorded” adds a separate entry of the source."}
{"smiles": "CC(=O)N(Cc1cccnc1)Cc1nc(C(=O)N(C)CC(=O)NCCOCCOCC(=O)NCC(N)=O)cs1", "note": "[Compound 2]", "values": [{"measurement": "binding of SA-647 to bead-displayed compound at low protein concentration", "setting": "[1]", "result": "above background binding was readily detectable"}, {"measurement": "Fluorescence intensity, Average", "setting": "[2]; SA-647 500 nM, 12 replicates, after background subtraction, Z' calculation", "result": 14647}, {"measurement": "binding of SA-647 to bead-displayed compound (fluorescence)", "setting": "[2]; SA-647 500 nM, 1 h, PBST, room temperature, after washing", "result": "readily detectable; also recorded: strong binding"}, {"measurement": "Fluorescence intensity, individual replicate", "setting": "[2]; SA-647 500 nM, replicates 1-12, after background subtraction, Z' calculation", "result": "15421 and 12975 and 13104 and 12492 and 14298 and 14769 and 15364 and 16337 and 17794 and 14546 and 14869 and 13797"}, {"measurement": "fluorescence after 24 h in buffer lacking protein compared with directly after washing", "setting": "[2]; beads washed, resuspended in PBST lacking protein for 24 h", "result": "almost identical"}, {"measurement": "retained SA-647 at 30% ligand density", "setting": "[2]; compound linked to only 30% of the sites on the beads, SA-647 500 nM", "result": "almost undetectable above background"}, {"measurement": "dependence of SA-647 retention on ligand density", "setting": "[2]; site functionalization 100% to 5%, SA-647 500 nM", "result": "strongly density-dependent"}, {"measurement": "dose-dependent binding of SA-647 (MFI by flow cytometer)", "setting": "SA-647", "result": "dose-dependent binding"}, {"measurement": "binding of GST to bead-displayed compound", "setting": "[3]", "result": "No detectable signal"}]}
